Test results reported in PubChem BioAssay (NCI).
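Compound exposure: 48 hours, 5 concentrations, 96-well plates. TGI marks complete inhibition of growth.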

How the values were obtained:
Experiment in all cases: DTP human tumour cell line panel, 48 h
LOX IMVI melanoma = tested on: LOX IMVI melanoma
SNB-19 CNS = tested on: SNB-19 CNS
HL-60(TB) leukemia = tested on: HL-60(TB) leukemia
MALME-3M melanoma = tested on: MALME-3M melanoma
A498 renal = tested on: A498 renal
EKVX NSCLC = tested on: EKVX NSCLC
HCT-15 colon = tested on: HCT-15 colon
NCI-H460 lung = tested on: NCI-H460 lung
NCI-H522 lung = tested on: NCI-H522 lung
MCF7 breast = tested on: MCF7 breast
T-47D breast = tested on: T-47D breast
OVCAR-4 ovarian = tested on: OVCAR-4 ovarian
SK-MEL-28 melanoma = tested on: SK-MEL-28 melanoma

With `O=C1CCC[C@@H]2NC[C@@H](c3ccc4c(c3)OCO4)[C@H]12` the TGI (LOX IMVI melanoma) was over 25 µM, the TGI (SNB-19 CNS) was over 25 µM and the TGI (HL-60(TB) leukemia) was over 25 µM. It also gave a TGI (MALME-3M melanoma) of over 25 µM, a TGI (A498 renal) of over 25 µM and a TGI (EKVX NSCLC) of over 25 µM. For the same compound, the TGI (HCT-15 colon) was over 25 µM, the TGI (NCI-H460 lung) was over 25 µM and the TGI (NCI-H522 lung) was over 25 µM. The TGI (MCF7 breast) was over 25 µM, the TGI (T-47D breast) was over 25 µM and the TGI (OVCAR-4 ovarian) was over 25 µM. It also gave a TGI (SK-MEL-28 melanoma) of over 25 µM.

For `Cc1nc2c(sc(=S)n2-c2ccccc2)c2nc3ncccc3n12`, the TGI (LOX IMVI melanoma) was over 100 µM, the TGI (SNB-19 CNS) was over 100 µM and the TGI (HL-60(TB) leukemia) was over 100 µM. The TGI (MALME-3M melanoma) was over 100 µM, the TGI (A498 renal) was over 100 µM and the TGI (EKVX NSCLC) was over 100 µM. The TGI (HCT-15 colon) was over 100 µM, the TGI (NCI-H460 lung) was over 100 µM and the TGI (NCI-H522 lung) was over 100 µM. For the same compound, the TGI (MCF7 breast) was over 100 µM, the TGI (T-47D breast) was over 100 µM and the TGI (SK-MEL-28 melanoma) was over 100 µM.

`O=C1C(Cl)=C(N2CCN(C3=C(Cl)C(=O)c4ccccc4C3=O)CC2)C(=O)c2ccccc21` gave a TGI (LOX IMVI melanoma) of 3.12 µM, a TGI (SNB-19 CNS) of 28.7 µM and a TGI (HL-60(TB) leukemia) of 1.26 µM. The TGI (MALME-3M melanoma) was 3.32 µM, the TGI (A498 renal) was 13.7 µM and the TGI (EKVX NSCLC) was 4.91 µM. It also gave a TGI (HCT-15 colon) of 3.07 µM, a TGI (NCI-H460 lung) of 13.6 µM and a TGI (NCI-H522 lung) of 1.83 µM. For the same compound, the TGI (MCF7 breast) was 3.34 µM, the TGI (T-47D breast) was 2.06 µM and the TGI (OVCAR-4 ovarian) was 2.94 µM. For the same compound, the TGI (SK-MEL-28 melanoma) was 3.48 µM.

With `C[N+]1=C2[B-](C(C)(C)C)=[N+](C(C)(C)C)[B-]2(C(C)(C)C)[N+](C)=C2[B-](C(C)(C)C)=[N+](C(C)(C)C)[B-]21C(C)(C)C` (centres undefined) the TGI (LOX IMVI melanoma) was over 100 µM, the TGI (SNB-19 CNS) was over 100 µM and the TGI (HL-60(TB) leukemia) was over 100 µM. For the same compound, the TGI (MALME-3M melanoma) was over 100 µM, the TGI (A498 renal) was over 100 µM and the TGI (EKVX NSCLC) was over 100 µM. For the same compound, the TGI (HCT-15 colon) was over 100 µM, the TGI (NCI-H460 lung) was over 100 µM and the TGI (NCI-H522 lung) was over 100 µM. For the same compound, the TGI (MCF7 breast) was over 100 µM, the TGI (T-47D breast) was over 100 µM and the TGI (OVCAR-4 ovarian) was over 100 µM. The TGI (SK-MEL-28 melanoma) was over 100 µM.

Compound `CC1=C2C(=O)NN=C2CCN1c1ccc(Br)cc1` has a TGI (LOX IMVI melanoma) of over 100 µM, a TGI (SNB-19 CNS) of over 100 µM and a TGI (HL-60(TB) leukemia) of over 100 µM. It also gave a TGI (MALME-3M melanoma) of over 100 µM, a TGI (A498 renal) of over 100 µM and a TGI (EKVX NSCLC) of over 100 µM. The TGI (HCT-15 colon) was over 100 µM, the TGI (NCI-H460 lung) was over 100 µM and the TGI (NCI-H522 lung) was over 100 µM. It also gave a TGI (MCF7 breast) of over 100 µM, a TGI (T-47D breast) of over 100 µM and a TGI (OVCAR-4 ovarian) of over 100 µM. It also gave a TGI (SK-MEL-28 melanoma) of over 100 µM.

`CCN(CC)CCc1c2c(nc3ccccc13)C(=O)c1cccnc1C2=O` gave a TGI (LOX IMVI melanoma) of 2.31 µM, a TGI (HL-60(TB) leukemia) of 1.41 µM and a TGI (MALME-3M melanoma) of 4.49 µM. It also gave a TGI (A498 renal) of 5.29 µM, a TGI (EKVX NSCLC) of 13.7 µM and a TGI (HCT-15 colon) of 1.29 µM. It also gave a TGI (NCI-H522 lung) of 6.46 µM, a TGI (MCF7 breast) of 1.51 µM and a TGI (T-47D breast) of 5.31 µM. The TGI (OVCAR-4 ovarian) was 3.69 µM and the TGI (SK-MEL-28 melanoma) was 7.27 µM.

Compound `Cc1ccc(C(=O)Nc2ccc(CP(=O)(O)O)cc2CP(=O)(O)O)cc1NC(=O)c1cccc(N)c1` has a TGI (LOX IMVI melanoma) of over 100 µM, a TGI (HL-60(TB) leukemia) of over 100 µM and a TGI (MALME-3M melanoma) of over 100 µM. For the same compound, the TGI (A498 renal) was over 100 µM, the TGI (EKVX NSCLC) was over 100 µM and the TGI (HCT-15 colon) was over 100 µM. It also gave a TGI (NCI-H460 lung) of over 100 µM, a TGI (NCI-H522 lung) of over 100 µM and a TGI (MCF7 breast) of over 100 µM. The TGI (T-47D breast) was over 100 µM, the TGI (OVCAR-4 ovarian) was over 100 µM and the TGI (SK-MEL-28 melanoma) was over 100 µM.

Work on `Brc1ccc(CCNCCN2CCCCC2)cc1` yielded a TGI (LOX IMVI melanoma) of 27.6 µM, a TGI (SNB-19 CNS) of 34 µM and a TGI (HL-60(TB) leukemia) of over 100 µM. It also gave a TGI (MALME-3M melanoma) of 31.7 µM, a TGI (A498 renal) of 32 µM and a TGI (EKVX NSCLC) of over 100 µM. For the same compound, the TGI (HCT-15 colon) was 33.6 µM, the TGI (NCI-H460 lung) was 27.8 µM and the TGI (NCI-H522 lung) was 30.3 µM. The TGI (MCF7 breast) was 29.5 µM, the TGI (T-47D breast) was 32 µM and the TGI (OVCAR-4 ovarian) was 48.1 µM. The TGI (SK-MEL-28 melanoma) was 24.1 µM.

`COc1ccc(-n2c(=O)c3[nH]cnc3n(-c3ccc(OC)cc3)c2=S)cc1` was tested, and the TGI (LOX IMVI melanoma) was over 100 µM, the TGI (HL-60(TB) leukemia) was over 100 µM and the TGI (A498 renal) was over 100 µM. For the same compound, the TGI (EKVX NSCLC) was over 100 µM, the TGI (HCT-15 colon) was over 100 µM and the TGI (NCI-H460 lung) was over 100 µM. The TGI (NCI-H522 lung) was over 100 µM, the TGI (MCF7 breast) was over 100 µM and the TGI (T-47D breast) was over 100 µM. It also gave a TGI (OVCAR-4 ovarian) of over 100 µM and a TGI (SK-MEL-28 melanoma) of over 100 µM.

Compound `COc1ccc(N2C(=O)C3c4[nH]c5ccc(OCc6ccccc6)cc5c4C4CCC(C(C)(C)C)CC4C3C2=O)cc1` (centres undefined) has a TGI (LOX IMVI melanoma) of over 100 µM, a TGI (SNB-19 CNS) of over 100 µM and a TGI (HL-60(TB) leukemia) of over 100 µM. It also gave a TGI (MALME-3M melanoma) of 54.1 µM, a TGI (A498 renal) of over 100 µM and a TGI (EKVX NSCLC) of over 100 µM. For the same compound, the TGI (HCT-15 colon) was over 100 µM, the TGI (NCI-H460 lung) was over 100 µM and the TGI (NCI-H522 lung) was over 100 µM. For the same compound, the TGI (MCF7 breast) was over 100 µM, the TGI (T-47D breast) was 55.5 µM and the TGI (OVCAR-4 ovarian) was 59.4 µM. It also gave a TGI (SK-MEL-28 melanoma) of over 100 µM.

`OCCCCCNc1c2ccccc2nc2ccccc12` showed a TGI (LOX IMVI melanoma) of 4.7 µM, a TGI (SNB-19 CNS) of 10.8 µM and a TGI (HL-60(TB) leukemia) of over 39 µM. For the same compound, the TGI (MALME-3M melanoma) was 4.15 µM, the TGI (A498 renal) was 12.7 µM and the TGI (EKVX NSCLC) was 17.5 µM. It also gave a TGI (HCT-15 colon) of 13.9 µM, a TGI (NCI-H460 lung) of 3.5 µM and a TGI (NCI-H522 lung) of 10.2 µM. For the same compound, the TGI (MCF7 breast) was 6.11 µM, the TGI (T-47D breast) was 8.38 µM and the TGI (OVCAR-4 ovarian) was 11.4 µM. For the same compound, the TGI (SK-MEL-28 melanoma) was 16.9 µM.

`O=C(CCCCCCCCC(=O)NN1C(=O)/C(=C\c2ccc(O)c(O)c2)SC1c1ccc(Cl)cc1)NN1C(=O)/C(=C\c2ccc(O)c(O)c2)SC1c1ccc(Cl)cc1` (centres undefined) was tested, and the TGI (LOX IMVI melanoma) was 57.6 µM, the TGI (SNB-19 CNS) was over 53.1 µM and the TGI (MALME-3M melanoma) was over 100 µM. The TGI (A498 renal) was 69 µM, the TGI (EKVX NSCLC) was over 100 µM and the TGI (HCT-15 colon) was over 100 µM. The TGI (NCI-H460 lung) was over 100 µM, the TGI (NCI-H522 lung) was 32.5 µM and the TGI (MCF7 breast) was over 100 µM. It also gave a TGI (T-47D breast) of over 100 µM, a TGI (OVCAR-4 ovarian) of over 100 µM and a TGI (SK-MEL-28 melanoma) of over 100 µM.
